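Five compound concentrations were applied to cells in 96-well plates for 48 hours; endpoints were derived by simple linear interpolation of the resulting dose-response curve. TGI: total growth inhibition.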 Active and inactive are the calls of the source. Cut-off read from the data, not from the text of the source: active = GI50 below about 0.43 µM; inactive = the rest.
Tests used:
Experiment in all cases: NCI-60 cell line screen, 48 h
OVCAR-4 ovarian = tested on: OVCAR-4 ovarian
COLO 205 colon = tested on: COLO 205 colon
SR leukemia = tested on: SR leukemia
EKVX NSCLC = tested on: EKVX NSCLC
HL-60(TB) leukemia = tested on: HL-60(TB) leukemia
HOP-92 NSCLC = tested on: HOP-92 NSCLC
OVCAR-8 ovarian = tested on: OVCAR-8 ovarian
NCI-H460 lung = tested on: NCI-H460 lung
UACC-257 melanoma = tested on: UACC-257 melanoma
SNB-78 CNS = tested on: SNB-78 CNS
HCT-116 colon = tested on: HCT-116 colon
DMS 114 small cell lung = tested on: DMS 114 small cell lung
DMS 273 small cell lung = tested on: DMS 273 small cell lung
OVCAR-5 ovarian = tested on: OVCAR-5 ovarian
NCI-H23 lung = tested on: NCI-H23 lung
CCRF-CEM leukemia = tested on: CCRF-CEM leukemia
SF-295 CNS = tested on: SF-295 CNS
SK-MEL-2 melanoma = tested on: SK-MEL-2 melanoma
UACC-62 melanoma = tested on: UACC-62 melanoma
NCI-H522 lung = tested on: NCI-H522 lung
LXFL 529 NSCLC = tested on: LXFL 529 NSCLC
U251 CNS = tested on: U251 CNS
MOLT-4 leukemia = tested on: MOLT-4 leukemia
KM20L2 colon = tested on: KM20L2 colon
M19-MEL melanoma = tested on: M19-MEL melanoma
SK-OV-3 ovarian = tested on: SK-OV-3 ovarian
OVCAR-3 ovarian = tested on: OVCAR-3 ovarian
A549 NSCLC = tested on: A549 NSCLC
KM12 colon = tested on: KM12 colon
SN12C renal = tested on: SN12C renal
HT29 colon = tested on: HT29 colon
RXF 393 renal = tested on: RXF 393 renal
MALME-3M melanoma = tested on: MALME-3M melanoma
SNB-75 CNS = tested on: SNB-75 CNS
SF-539 CNS = tested on: SF-539 CNS
HCC-2998 colon = tested on: HCC-2998 colon
NCI-H226 lung = tested on: NCI-H226 lung
ACHN renal = tested on: ACHN renal
SNB-19 CNS = tested on: SNB-19 CNS
CAKI-1 renal = tested on: CAKI-1 renal
K-562 leukemia = tested on: K-562 leukemia
DLD-1 colon = tested on: DLD-1 colon
SF-268 CNS = tested on: SF-268 CNS
LOX IMVI melanoma = tested on: LOX IMVI melanoma
HOP-62 NSCLC = tested on: HOP-62 NSCLC
RPMI-8226 leukemia = tested on: RPMI-8226 leukemia
SW-620 colon = tested on: SW-620 colon
IGROV1 ovarian = tested on: IGROV1 ovarian
UO-31 renal = tested on: UO-31 renal
M14 melanoma = tested on: M14 melanoma
786-0 renal = tested on: 786-0 renal
HCT-15 colon = tested on: HCT-15 colon
MDA-MB-231 breast = tested on: MDA-MB-231 breast
MCF7 breast = tested on: MCF7 breast
A498 renal = tested on: A498 renal
DU-145 prostate = tested on: DU-145 prostate
T-47D breast = tested on: T-47D breast
SK-MEL-5 melanoma = tested on: SK-MEL-5 melanoma
NCI/ADR-RES ovarian = tested on: NCI/ADR-RES ovarian
TK-10 renal = tested on: TK-10 renal
MDA-N = tested on: MDA-N
PC-3 prostate = tested on: PC-3 prostate
MDA-MB-435 = tested on: MDA-MB-435
SK-MEL-28 melanoma = tested on: SK-MEL-28 melanoma

Measured: TGI

O=C1CC2CC(O1)[C@H]1O[C@H]1C2 (stereo partly specified)
inactive: OVCAR-4 ovarian | COLO 205 colon | SR leukemia | EKVX NSCLC | HL-60(TB) leukemia | HOP-92 NSCLC | OVCAR-8 ovarian | NCI-H460 lung | UACC-257 melanoma | SNB-78 CNS | HCT-116 colon | DMS 114 small cell lung | DMS 273 small cell lung | OVCAR-5 ovarian | NCI-H23 lung | CCRF-CEM leukemia | SF-295 CNS | SK-MEL-2 melanoma | UACC-62 melanoma | NCI-H522 lung | LXFL 529 NSCLC | U251 CNS | MOLT-4 leukemia | KM20L2 colon | M19-MEL melanoma | SK-OV-3 ovarian | OVCAR-3 ovarian | A549 NSCLC | KM12 colon | SN12C renal | HT29 colon | RXF 393 renal | MALME-3M melanoma | SNB-75 CNS | SF-539 CNS | HCC-2998 colon | NCI-H226 lung | ACHN renal | SNB-19 CNS | CAKI-1 renal | K-562 leukemia | DLD-1 colon | SF-268 CNS | LOX IMVI melanoma | HOP-62 NSCLC | RPMI-8226 leukemia | SW-620 colon | IGROV1 ovarian | UO-31 renal | M14 melanoma | 786-0 renal | HCT-15 colon

Nc1ncnc2c1ncn2C1CC(O)C(CO)O1 (stereo unspecified)
> 100 µM: MDA-MB-231 breast | OVCAR-4 ovarian | COLO 205 colon | SR leukemia | EKVX NSCLC | MCF7 breast | HL-60(TB) leukemia | HOP-92 NSCLC | OVCAR-8 ovarian | NCI-H460 lung | UACC-257 melanoma | SNB-78 CNS | HCT-116 colon | DMS 114 small cell lung | DMS 273 small cell lung | A498 renal | OVCAR-5 ovarian | NCI-H23 lung | CCRF-CEM leukemia | DU-145 prostate | SF-295 CNS | SK-MEL-2 melanoma | T-47D breast | SK-MEL-5 melanoma | UACC-62 melanoma | NCI-H522 lung | LXFL 529 NSCLC | NCI/ADR-RES ovarian | TK-10 renal | U251 CNS | MOLT-4 leukemia | KM20L2 colon | M19-MEL melanoma | SK-OV-3 ovarian | OVCAR-3 ovarian | A549 NSCLC | KM12 colon | MDA-N | SN12C renal | HT29 colon | RXF 393 renal | MALME-3M melanoma | SNB-75 CNS | PC-3 prostate | SF-539 CNS | HCC-2998 colon | NCI-H226 lung | ACHN renal | SNB-19 CNS | CAKI-1 renal | K-562 leukemia | DLD-1 colon | SF-268 CNS | LOX IMVI melanoma | HOP-62 NSCLC | MDA-MB-435 | RPMI-8226 leukemia | SW-620 colon | IGROV1 ovarian | UO-31 renal | M14 melanoma | 786-0 renal | HCT-15 colon | SK-MEL-28 melanoma
